Like-named read-outs stand apart in the source and are kept apart here.
Key:
[1] = From the text: ^++ D'Amour,D.E. and Smith,D.L.: J.Pharm.Expt.Ther. 72. 74 (1941)
in vivo = settings: rat, sc
Remark: listed apart in the source
[2] = Analgesic activity, writhing test (Van der Wende and Margolin), s.c., mice; settings: Mus musculus, sc, read-out: ED50 (Writhing test)
[3] = Analgesic ED50, hot plate test, i.p. (footnote of Table 4); type: in vivo; settings: for ED50: ip, read-out: ED50 (analgesic)
Description: 0.025 mg./kg. i.p., Compound "A": 0.0125 mg./kg. i.p. (measured by the ho

[4] = tested on: electrical stimulation induced coughing; test: Anti-tussive activity: electrical stimulation (superior laryngeal nerve) induced coughing in cats (method of Domenjoz); type: in vivo; settings: for ED50 / ED100: Felis catus; for ED50: read-out: AtD50; for ED100: read-out: AtD100
Description: Anti-tussive activity in cats was determined by the method of Domenjoz. Cats weighing 2.5 to 3.5 kg were anesthetized with an i.p. dose of 30 mg per kg of sodium pentobarbitone. […] The cough responses were measured by means of a Marey-tambour connected to a face mask and recorded on a smoked paper. Drugs were given intravenously in increasing doses. The effect of each dose was measured on at least five cats. The effects of the drug was calculated from the changes of amplitude of cough curves. If no coughing was produced by two successive stimulations, the dose was taken as the effective anti-tussive dose (AtD100). The anti-tussive dose (AtD50) which reduces the control response by 50% was calculated by the method of Litchfield and Wilcoxon.

[5] = tested on: citric acid aerosol induced cough; test: animal or person; type: in vivo, Wistar rats; settings: for ED50: Rattus norvegicus, read-out: AtD50
Description: The anti-tussive activity in rats was tested by the method of Gosswald. Wistar rats weighing 130 to 180 g were placed in a plexi box (23 × 22 × 11 cm) and cough responses were elicited by citric acid aerosol (10%). The latency period of cough was measured before and after drug administration. The control latency was determined 18 hours before the drug administration. Animals with less than 60 second control latency were used for the experiments. […] Each animal was exposed to citric acid aerosol for a period of 3 minutes 30 seconds and 60 minutes after drug administration. […] Ten animals were used at each dose level. The anti-tussive dose (AtD50) was calculated according to Litchfield and Wilcoxon. The drugs were administered by subcutaneous and oral routes.

[6] = Physical dependency disposition test (spring-test; jumping after naloxone) for 2 days on mice; settings: Haloxone 100 mg./kg., 2nd day; for Average jump per mouse: mice
Description: ^+ The total dosage was added intraperitoneally in seven, gradually
increasing increments, within 26 hours.

[7] = Blood pressure changes in anesthetized cats; settings: for Change in blood pressure: drop from control
Description: Blood pressure changes were studied in cats anesthetized with pentabarbitone sodium (35 mg/kg, i.p.). The substances were injected into the right femoral vein, responses to drugs were measured by means of a mercury manometer and recorded on a smoke cylinder.

[8] = rats, s.c., 95% confidence limits on the next line
[9] = rats, s.c., 95% confidence limits given
[10] = sc, rats, s.c., limits in brackets
[11] = total dosage 10 i.p. in 26 hours
[12] = total dosage 70 i.p. in 26 hours
[13] = cats, i.v., no coughing by two successive stimulations
[14] = total dosage 100 i.p. in 26 hours
[15] = total dosage 200 i.p. in 26 hours
[16] = total dosage 400 i.p. in 26 hours
[17] = total dosage 1000 i.p. in 26 hours
[18] = iv, cats, i.v., no coughing by two successive stimulations
[19] = total dosage 1 i.p. in 26 hours
[20] = total dosage 40 i.p. in 26 hours
[21] = anesthetized cats, 0.5 mg/kg i.v.
[22] = anesthetized cats, 0.5 mg/kg i.v., means ± S.E.

## CCOC(=O)C1(c2ccccc2)CCN(C)CC1 [Petidine]
[1]; [8]
  ED50 (tail flick test): 4.3 s.c. mg./kg.
In vivo
  LD50: 280 mg/kg
[9]
  ED50 (hot plate): 4.9 mg./kg.s.c.
[2]
  ED50: 3.3 mg/kg

## CN1CC[C@]23c4c5ccc(O)c4O[C@H]2[C@H](N=[N+]=[N-])CC[C@@]3(O)[C@H]1C5 [Compound "A", 6-deoxy-6-azido-14-hydroxy-7,8-dihydroisomorphine]
[3]; hot plate test
  ED50: 0.0125 mg/kg
[4]; iv
  ED50: 0.012 mg/kg
  ED100: 0.02 ± 0.002 mg/kg
[4]; in vivo, iv
  Ratio codeine/drug (AtD50): 120.83
  Ratio codeine/drug (AtD100): 253.50
[5]; po
  ED50: 10 mg/kg
[5]; [10]
  ED50: 0.021 mg/kg
[5]; rat, in vivo
  anti-tussive activity in words: superior anti-tussive to those anti-tussives currently in use
[5]; rat, in vivo, po
  Ratio codeine/drug (AtD50): 10.00
[5]; rat, in vivo, sc
  potency as an anti-tussive relative to codeine: 904 times
[5]; rats, s.c.
  Ratio codeine/drug (AtD50): 904.76
[1]; [8]
  ED50 (tail flick test): 0.029 s.c. mg./kg.
[6]; [11]
  Average jump per mouse: 0.9
  Jumping mice/examined mice: 3/25
[6]; [12]
  Average jump per mouse: 3.8
  Jumping mice/examined mice: 14.25
In vivo
  LD50: 200 mg/kg
[7]; in vivo
  tolerance to the vasodepressor responses: cross tolerance between morphine, codeine, azidomorphine and 14-hydroxyazidomorphine* was observed
[7]; in vivo, iv
  blood pressure effect in words: greatest drop in blood pressure of all compounds tested
[7]; in vivo, iv, 0.035 mg/kg
  Blood pressure after drug: 97 ± 4.5 mm Hg
rat, in vivo
  therapeutical indices in words: more favorable therapeutical indices than any of the known substances with similar biological activities
[9]
  ED50 (hot plate): 0.012 mg./kg.s.c.
[2]
  ED50: 0.051 mg/kg

## CC(C)=CCN1CCC2(C)c3cc(O)ccc3CC1C2C (centres unmarked) [Pentazocine]
[1]; [8]
  ED50 (tail flick test): 12 s.c. mg./kg.
In vivo
  LD50: 280 mg/kg
[9]
  ED50 (hot plate): 9.1 mg./kg.s.c.
[2]
  ED50: 8.1 mg/kg

## CN1CC[C@]23c4c5ccc(O)c4O[C@H]2[C@@H](O)C=C[C@H]3[C@H]1C5 [Morphine]
[3]; i.p., hot plate test
  ED50 (analgesic): 5 mg./kg. i.p.
[4]; iv
  ED50: 0.61 mg/kg
[4]; [13]
  AtD100: 1.28 ± 0.32 mg/kg i.v.
[1]; rat, in vivo, sc
  ED50 (tail flick test): 1.8 s.c. mg./kg.
[6]; [14]
  Average jump per mouse: 9.7
  Jumping mice/examined mice: 20/25
[6]; [15]
  Average jump per mouse: 46.4
  Jumping mice/examined mice: 25/25
[6]; [16]
  Average jump per mouse: 42.7
  Jumping mice/examined mice: 25/25
[6]; [17]
  Average jump per mouse: 48.7
  Jumping mice/examined mice: 25/25
[7]; anesthetized cats, 1.03 mg/kg i.v.
  Change in blood pressure: 39 ± 2.1 mm Hg
[7]; anesthetized cats, 1.03 mg/kg i.v., means ± S.E.
  Blood pressure after drug: 92 ± 1.0 mm Hg
[7]; anesthetized cats, i.v.
  blood pressure effect in words: only morphine produced a biphasic hypotensive effect
rat, in vivo, sc
  ED50 (hot plate): 4.7 mg./kg.s.c.
[2]
  ED50: 0.69 mg/kg

## COc1ccc2c3c1O[C@H]1[C@@H](O)C=C[C@H]4[C@@H](C2)N(C)CC[C@@]341 [Codeine]
[4]; [18]
  ED100: 5.07 ± 1.87 mg/kg
[4]; iv, cats, i.v.
  ED50: 1.45 mg/kg
[5]; [10]
  ED50: 19 mg/kg
[5]; rats, oral, limits in brackets
  ED50: 100 mg/kg
[7]; anesthetized cats, 1.5 mg/kg i.v.
  Change in blood pressure: 26 ± 4.9 mm Hg
[7]; anesthetized cats, 1.5 mg/kg i.v., means ± S.E.
  Blood pressure after drug: 98 ± 5.3 mm Hg
[7]; anesthetized cats, successive administrations
  tolerance to the vasodepressor responses: cross tolerance between morphine, codeine, azidomorphine and 14-hydroxyazidomorphine* was observed

## CN1CC[C@]23c4c5ccc(O)c4O[C@H]2[C@H](N=[N+]=[N-])CC[C@H]3[C@H]1C5 [Azidomorphine, 6-deoxy-6-azido-7,8-dihydroisomorphine]
[3]
  ED50: 0.025 mg/kg
[5]; [10]
  ED50: 0.034 mg/kg
[5]; rats, s.c.
  Ratio codeine/drug (AtD50): 558.82
[1]; [8]
  ED50 (tail flick test): 0.012 s.c. mg./kg.
[6]; [19]
  Average jump per mouse: 0.0
  Jumping mice/examined mice: 0/25
[6]; [11]
  Average jump per mouse: 1.4
  Jumping mice/examined mice: 10/25
[6]; [20]
  Average jump per mouse: 10.1
  Jumping mice/examined mice: 19/25
[6]; [12]
  Average jump per mouse: 7.4
  Jumping mice/examined mice: 12/25
In vivo
  LD50: 13 mg/kg
[7]; anesthetized cats, 0.0035 mg/kg i.v.
  Change in blood pressure: 40 ± 3.4 mm Hg
[7]; anesthetized cats, 0.0035 mg/kg i.v., means ± S.E.
  Blood pressure after drug: 103 ± 9.3 mm Hg
[7]; in vivo
  tolerance to the vasodepressor responses: cross tolerance between morphine, codeine, azidomorphine and 14-hydroxyazidomorphine* was observed
[9]
  ED50 (hot plate): 0.016 mg./kg.s.c.
[2]
  ED50: 0.013 mg/kg

## COc1ccc2c3c1O[C@H]1[C@H](N=[N+]=[N-])CC[C@H]4[C@@H](C2)N(C)CC[C@@]341 [Azidocodeine]
[4]; cats, i.v.
  AtD50: 0.40 mg/kg i.v.
  Ratio codeine/drug (AtD50): 3.63
  Ratio codeine/drug (AtD100): 4.69
[4]; [13]
  AtD100: 1.08 ± 0.04 mg/kg i.v.
[5]; rats, s.c.
  Ratio codeine/drug (AtD50): 12.10
[5]; rats, s.c., limits in brackets
  AtD50: 1.57 (1.20-2.41) mg/kg s.c.
[7]; [21]
  Change in blood pressure: 6 ± 3.8 mm Hg
[7]; [22]
  Blood pressure after drug: 122 ± 5.2 mm Hg
[7]; anesthetized cats, i.v.
  blood pressure effect in words: The substances studied, except azidocodeine and 14-hydroxy-azidocodeine, lowered blood pressure

## CCC(=O)C(CC(C)N(C)C)(c1ccccc1)c1ccccc1 (centres unmarked) [Methadone]
[1]; rat, in vivo, sc
  ED50 (tail flick test): 1.6 s.c. mg./kg.
In vivo
  LD50: 28 mg/kg
rat, in vivo, sc
  ED50 (hot plate): 1.9 mg./kg.s.c.
[2]
  ED50: 0.71 mg/kg

## COc1ccc2c3c1O[C@H]1C(N=[N+]=[N-])CC[C@@]4(O)[C@@H](C2)N(C)CC[C@]314 (some centres unmarked) [14-OH-azidocodeine]
[4]; [18]
  ED100: 1.47 ± 0.07 mg/kg
[4]; iv, cats, i.v.
  ED50: 0.6 mg/kg
[4]; cats, i.v.
  Ratio codeine/drug (AtD50): 2.42
  Ratio codeine/drug (AtD100): 2.91
[5]; [10]
  ED50: 0.82 mg/kg
[5]; rats, s.c.
  Ratio codeine/drug (AtD50): 23.17
[7]; [21]
  Change in blood pressure: 3 ± 1.3 mm Hg
[7]; [22]
  Blood pressure after drug: 126 ± 6.6 mm Hg
[7]; anesthetized cats, i.v.
  blood pressure effect in words: The substances studied, except azidocodeine and 14-hydroxy-azidocodeine, lowered blood pressure

Source: US4144236A (priority 1973, dated 1979)
